Laboratory results published in patent US12616704B2, “Cannabichromene formulation for pain management” (Zyus Life Sciences Inc., priority 2020, dated 2026).

Assays:
[1] = Body weight monitoring in SNL study; assay type: in vivo, Sprague-Dawley rats; conditions: SNL rats; CBC 10 mg/kg, pregabalin 50 mg/kg; two-way ANOVA, Tukey's
Procedure: Body Weight Monitoring. The body weight of the animals was recorded at baseline evF testing, on the day of surgery (DO), and daily thereafter.

SNL model effect = assay: Data mining (cPCA) of kinematic gait data: SNL model (analgesic) and sedation effect scores; assay type: in vivo, rats; conditions: pregabalin 50 mg/kg
Procedure: Data mining was successfully performed to extend the multivariate kinematic data analysis and capture the analgesic effect of cannabichromene (CBC) on quantitative measurement of parameters attributed to the temporal aspects of motion to evaluate temporal aspects of motion, such as positions, angles, velocities, and accelerations of body segments and joints during motion.
Overall, 97 gait parameters were analyzed, and each parameter was averaged within each treatment group. A statistical method using Contrastive Principal Component Analysis (cPCA) was employed (Abid et al., 2018). The method of cPCA was designed to identify different combinations of original variables linked to the Spinal Nerve Ligation (SNL) model effect (pain) and learning effect. An orthogonalization procedure was then performed to create the obtained effects independent of learning and possible sedation. After the contrastive principal components (cPCs) (Model, Sedative) were established, the corresponding cPC scores were computed for each observation. The obtained cPC scores were further analyzed by using mixed two-way ANOVA followed by Dunnett's test of the estimated marginal means. The cPCA based analysis framework was implemented using R environment (R version 3.6.3). Statistical analysis was performed using Ime4 (Bates et al., 2015) and emmeans (R package version 1.4.5.) packages. The results of these comparisons were obtained by using all the previously identified components: model effect, learning effect and model orthogonal to learning.

[2] = tested on: SNL-induced motor phenotype; assay: Fine motor kinematic gait analysis (MotoRater) in SNL model; assay type: in vivo, Sprague-Dawley rats; conditions: for Overall kinematic gait score, Vehicle vs. treatment: Summary / Overall kinematic gait score, Vehicle vs. treatment: Predicted (LS) mean diff.: between groups
Procedure: The treatment groups received the following test article mixtures: • Group 1: treated with vehicle (0.9% saline) • Group 2: treated with Pregabalin (50 mg/kg) • Group 3: treated with CBC (10 mg/kg)
Administration of Treatments. CBC (cannabichromene) formulation, the vehicle, or pregabalin treatment was administered according to Table 1 on study day 8 to all study animals, and on study day 10 to 6 animals per group. The dousing route of CBC or the vehicle were intragastric (p.o.), while pregabalin was administered intraperitoneally (i.p.). In addition to D8, pregabalin was administered on D9, at 2 h prior to the evf test. All animals of the pregabalin group were euthanized on D9, following the last test trial. The CBC was dissolved and diluted to one of the following vehicles:
Fine Motor Kinematic Gait Analysis. The subjected to gait analysis at the baseline and on study days 8, 9, 11, 14 and 17, at a minimum of 30 min after the evF test. The assay was carried out by MotoRater (TSE Systems, Homburg, Germany), with the walking mode. Prior to commencing the test, the essential body points (e.g. joints, limbs, nose, tail) were marked for tracking. The information of the gait performance was captured using a high speed camera (300 frames/second) from below and both sides. Next, the captured videos are converted to custom software. The raw data was obtained by tracking the marked points of the body from the videos recorded from all 3 dimensions. The raw data thus comprise correlation of the movements of different body points in coordinates related to the ground and each three dimensions.
Different gait patterns and movements were analyzed using a custom made automated analysis system. Information about altogether over a hundred kinematic parameters were attained. These comprised e.g:
All MotoRater data were analyzed for the distinct parameters, as well as for all combined parameters, using principal component analysis (PCA). The obtained results produce the model phenotype in gait analysis i.e. the difference between vehicle and cannabinoid treated animals regarding both individual parameters and PCA.
In addition to the baseline test, the motorater test was performed altogether four times over the course of behavioral study phase: • on D7, to assess the model-specific motor defects prior to dosing, • on D8, after finishing the 4-h evF, • on D8, after finishing the 8-h evF, and • on D9, after finishing the 24-h evF.
The kinematic assay was not performed to the animals before a minimum of 30 min after evF test.

[3] = BL (before dosing), vehicle vs. pregabalin group
[4] = D 7 (pre-dosing), vehicle vs. pregabalin group
[5] = within group, CBC 10 mg/kg p.o., pregabalin 50 mg/kg i.p.
[6] = within group, z-score, CBC 10 mg/kg p.o., pregabalin 50 mg/kg i.p.

## CC(C)C[C@H](CN)CC(=O)O [Pregabalin, pregabalin, reference compound]
[1]
  body weight vs. vehicle over the course of the study: not significantly different
SNL model effect
  analgesic or sedative effect in fine motor kinematic performance: no analgesic or sedative effect
[2]; [3]
  Duty Cycle [%]: Stats: 2.77
  Duty Cycle, Fore [%]: Stats: 3.26
  Mean Hip Jerk [m/s3]: Adjusted p-value: 0.001
  Mean Hip Jerk [m/s3]: Adjusted p-value Sig?: *** (*** p≤0.001)
  Mean Hip Jerk [m/s3]: Stats: −3.75
  Mean Hip Jerk [m/s3]: p-value: 0.001
[2]; BL (before dosing), vehicle vs. treatment group
  Knee ROM Deviation [degree]: Stats: 3.23
[2]; Baseline (before SNL and dosing)
  Overall kinematic gait score, Vehicle vs. treatment: Summary: * (p<0.05, significant)
[2]; Baseline (before SNL and dosing), z-score
  Overall kinematic gait score, Vehicle vs. treatment: Predicted (LS) mean diff.: −2.013
[2]; D7 (pre-dosing)
  Overall kinematic gait score, Vehicle vs. treatment: Summary: ns
[2]; [4]
  Paw Trajectory Shape 25%, Hind [%]: Stats: −3.01
  Relative Trajectory Length, Fore: Stats: −3.26
[2]; D7 (pre-dosing), z-score
  Overall kinematic gait score, Vehicle vs. treatment: Predicted (LS) mean diff.: −0.5896
[2]; D8 5 h, CBC 10 mg/kg p.o., pregabalin 50 mg/kg i.p.
  Overall kinematic gait score, Vehicle vs. treatment: Summary: ns
[2]; D 8 5 h, vehicle vs. pregabalin 50 mg/kg
  Ankle Angle, Min [degree]: Stats: −2.99
[2]; D 8 5 h, vehicle vs. treatment, CBC 10 mg/kg, pregabalin 50 mg/kg
  Ankle Angle, Max [degree]: Stats: −3.74
[2]; D8 5 h, z-score, CBC 10 mg/kg p.o., pregabalin 50 mg/kg i.p.
  Overall kinematic gait score, Vehicle vs. treatment: Predicted (LS) mean diff.: −0.2262
[2]; D8 9 h, CBC 10 mg/kg p.o., pregabalin 50 mg/kg i.p.
  Overall kinematic gait score, Vehicle vs. treatment: Summary: ns
[2]; D 8 9 h, vehicle vs. pregabalin 50 mg/kg
  Hip ROM [degree]: Stats: 2.85
[2]; D8 9 h, z-score, CBC 10 mg/kg p.o., pregabalin 50 mg/kg i.p.
  Overall kinematic gait score, Vehicle vs. treatment: Predicted (LS) mean diff.: −0.8408
[2]; D9, CBC 10 mg/kg p.o., pregabalin 50 mg/kg i.p.
  Overall kinematic gait score, Vehicle vs. treatment: Summary: ns
[2]; D9, z-score, CBC 10 mg/kg p.o., pregabalin 50 mg/kg i.p.
  Overall kinematic gait score, Vehicle vs. treatment: Predicted (LS) mean diff.: −0.8531
[2]; [5]
  Overall kinematic gait score, D7 vs. D8 5 h: Summary: ns
  Overall kinematic gait score, D7 vs. D8 9 h: Summary: ** (p<0.01, very significant)
  Overall kinematic gait score, D7 vs. D9: Summary: ns
[2]; within group, before dosing
  Overall kinematic gait score, D7 vs. Baseline: Summary: ** (p<0.01, very significant)
[2]; [6]
  Overall kinematic gait score, D7 vs. D8 5 h: Predicted (LS) mean diff.: −1.135
  Overall kinematic gait score, D7 vs. D8 9 h: Predicted (LS) mean diff.: −2.27
  Overall kinematic gait score, D7 vs. D9: Predicted (LS) mean diff.: −1.271
[2]; within group, z-score, before dosing
  Overall kinematic gait score, D7 vs. Baseline: Predicted (LS) mean diff.: 1.964
